One assay has as its target T1, APOL1 G1 Protein (Homo sapiens, UniProt O14791, I384M/S342G).
T1 sequence (O14791 28-398 S342G/I384M): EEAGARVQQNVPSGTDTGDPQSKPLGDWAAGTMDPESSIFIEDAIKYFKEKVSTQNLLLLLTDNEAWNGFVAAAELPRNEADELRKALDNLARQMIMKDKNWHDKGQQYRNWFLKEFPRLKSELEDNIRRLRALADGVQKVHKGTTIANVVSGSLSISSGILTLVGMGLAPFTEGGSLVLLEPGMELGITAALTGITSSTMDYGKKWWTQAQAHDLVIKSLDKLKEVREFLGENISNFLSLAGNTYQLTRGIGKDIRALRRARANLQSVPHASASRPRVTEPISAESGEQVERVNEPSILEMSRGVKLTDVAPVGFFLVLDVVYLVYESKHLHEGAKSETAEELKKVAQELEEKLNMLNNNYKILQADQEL
As to the kind of experiment: Trypanosoma brucei brucei Lysis Assay Using APOL1 Recombinant Protein (AlamarBlue viability). The format is cell-based. The note with it: read-out: Trypanosomal Assay (IC50). An excerpt:
Trypanosoma brucei brucei is a blood stream parasite to which human, gorillas and baboon are immune due to the presence of the APOL1 protein in their HDL particles. The protein is uptaken by the parasite via the TbHpHb receptor located in its flagellar pocket and is bonded by the Hpr protein contained in the HDL particles which triggers the receptor endocytosis by the parasite.
Following endocytosis, the formed vesicle containing the HDL particle matures from early to late endosome, and subsequently to lysosome. The concomitant pH change in the lumen of the vesicle triggers the insertion of the APOL1 protein into the membrane of the late endosome/lysosome and hereby triggers lysosomal membrane permeabilization and as a further downstream event, trypanosome lysis. Trypanosoma brucei brucei is sensitive to lysis by all three APOL1 variants (G0, G1, and G2).
The Trypanosoma brucei brucei lysis assay is a lysis assay of the parasite using recombinant APOL1 protein variant followed by a fluorescent detection method of viability by the addition of AlamarBlue reagent to the assay well, a general metabolic redox indicator (AlamarBlue assay).
Briefly, the AlamarBlue active compound, the resazurin, a blue, water soluble, non-toxic and cell permeable molecule, which can be followed by absorbance, is reduced by various metabolic pathways into resorufin, a red compound which can be followed by either absorbance or fluorescence. The assay allows the calculation of the percent viability (percent of living Trypanosomes remaining in each well) at the end of a lysis relative to the untreated condition by interpolation of fluorescent values (FLU) on a standard curve with a known amount of seeded trypanosome/well.
Trypanosoma brucei brucei (ATCC, Cat. No. PRA-382) • Lister 427 VSG 221 bloodstream form.
Thaw/Expansion Media (ATCC Medium 2834 Modified HMI-9 Medium)
Assay Media (No Phenol Red/No FBS): Make on Day of Use
Hypoxanthine Stock (100×)-9 (10×)
Equipment • E1-Clip Tip pipette 12 channel adjustable 2-125 μL, Cat. No. 4672070BT • ThermoFisher MultiDrop 384, Cat. No. 5840300 • Multidrop • Agilent Bravo, Cat. No. G5409A • Bravo • SpectraMax M5
Trypanosoma brucei brucei Culture
Step 2, Day 4 • Centrifuge at 800×g for 5 minutes at room temperature. • Resuspend in 1 mL media. • Make a 1:25 fold dilution (10 μL/240 μL media). • Count on a hemocytometer (after adding parasites). • Let sit for 1-2 minutes for the parasites to settle. • Count should be approximately 100 viable motile parasites/16 grid or approximately 25×10^6 parasites/flask. • Passage the parasites by adding 1×10^6 parasites/T75 flask in 20 mL media. • Passage the parasites by adding 2.33×10^6 parasites/T175 flask in 46.6 mL media. • For every T75 flask should make enough for approximately 1.5×384 well assay plates. • For every T175 flask should make enough for approximately 3.8×384 well assay plates.
Step 3, Day 6 • Centrifuge at 800×g for 5 minutes. • Resuspend in 3 mL assay media (No phenol red, no FBS) per 75 starting flask. • Resuspend in 7 mL assay media (No phenol red, no FBS) per 175 flask • Make a 1:25 fold dilution. • Count by hemocytometer. • Every T75 flask set up should have approximately 75×10^6 parasites/flask (verify doubling time=8.7 hours±1 hour). • Every T175 flask set up should have approximately 175×10^6 parasites/flask (verify doubling time=8.7 hours±1 hour). • Require 46×10^6 parasites per 384 well plate (at 120,000 parasites per well). […]

A further assay concerns the target T2, G1 APOL1 (Homo sapiens, UniProt O14791, I384M/S342G).
T2 construct: expressed in transfected cells
T2 sequence (O14791 28-398 S342G/I384M): T1 sequence (O14791 28-398 S342G/I384M)
As to the kind of experiment: Acute APOL1 Thallium Assay with Inducible Stable Clones of HEK 293 Cells. The format is cell-based. The note with it: HEK 293 inducible stable clones, G1 APOL1; read-out: Thallium Assay (IC50). A digest of the protocol: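 Pore activity was read as the fluorescence increase from Tl+ entering cells loaded with an AM-ester thallium indicator dye. The cells were tetracycline-inducible HEK293 T-Rex expressing G1 APOL1 (clone DC3.25), induced when plated at 26000 per well and incubated at 37° C.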

This passage reports IC50 results from patent publication US20230014907A1, “INHIBITORS OF APOL1 AND METHODS OF USING SAME” (Vertex Pharmaceuticals Incorporated, priority 2020, published 2023).

For orientation: IC50 means the concentration at which inhibition is half-maximal.

In the case of `CC1(N)CCN(C(=O)CCc2c(-c3ccc(F)cc3)[nH]c3ccc(F)cc23)C1` (racemic) [Compound 67], the IC50 on APOL1 G1 Protein and on G1 APOL1 was over 1 µM throughout.
In the case of `O=C(CCc1c(-c2ccc(F)cc2)[nH]c2ccc(F)cc12)N[C@@H]1CCC[C@@H]1O` [Compound 15], the IC50 at APOL1 G1 Protein and at G1 APOL1 was 0.25 to 1 µM in each case.
As to `C[C@@H](O)[C@H](CO)NC(=O)CCc1c(-c2ccc(F)cc2)[nH]c2ccc(F)cc12` [Compound 38], the IC50 at APOL1 G1 Protein and on G1 APOL1 was 0.25 to 1 µM throughout.
For `Cn1ccnc1NC(=O)CCc1c(-c2ccc(F)cc2)[nH]c2c(F)cc(F)cc12` [Compound 108], the IC50 on APOL1 G1 Protein and on G1 APOL1 was over 1 µM in each case.
With `O=C(CCc1c(-c2ccc(F)cc2)[nH]c2c(F)ccc(F)c12)N[C@H]1CCOC1=O` [Compound 233, 3-[4,7-difluoro-2-(4-fluorophenyl)-1H-indol-3-yl]-N-[(3S)-2-oxotetrahydrofuran-3-yl]propanamide], the results for the IC50 on APOL1 G1 Protein and at G1 APOL1 were over 1 µM and 0.25 to 1 µM, respectively.
For `CC(C)(C)OC(=O)N[C@H]1C[C@H](NC(=O)CCc2c(-c3ccc(F)cc3)[nH]c3ccc(F)cc23)C1` [Compound 57], in that order: over 1 µM and over 1 µM.
On the same counts, the results for `CC(=O)NCCSc1c(-c2ccc(F)cc2)[nH]c2ccccc12` [Compound 510, N-[2-[[2-(4-fluorophenyl)-1H-indol-3-yl]sulfanyl]ethyl]acetamide] are 0.25 to 1 µM and 0.25 to 1 µM.
For `O=C(CCc1c(-c2ccc(F)cc2)[nH]c2ccc(F)cc12)NC(CO)C1CC1` (stereo not shown) [Compound 21], in that order: 0.25 to 1 µM and 0.25 to 1 µM.
For `O=C(CCc1c(-c2ccc(F)cc2)[nH]c2c(F)cc(F)cc12)NCc1ccc(Cl)s1` [Compound 130], the IC50 at APOL1 G1 Protein and on G1 APOL1 was over 1 µM in each case.
Take `O=C(CCc1c(-c2ccc(F)cc2)[nH]c2c(F)cc(F)cc12)NC1(CO)CCOC1` (stereo not shown) [Compound 116]: the concentration for half-maximal inhibition (IC50) on APOL1 G1 Protein and at G1 APOL1 was over 1 µM throughout.
As for `CC(C)(CO)NC(=O)CCc1c(-c2ccc(F)cc2)[nH]c2ccc(F)cc12` [Compound 19], the IC50 on APOL1 G1 Protein and at G1 APOL1 was 0.25 to 1 µM each time.
With `O=C(CCc1c(-c2ccc(F)cc2)[nH]c2ccc(F)cc12)NC1CC1c1ccc(F)cc1` (stereo not shown) [Compound 44], the IC50 at APOL1 G1 Protein and at G1 APOL1 was over 1 µM in each case.
As for `CS(=O)(=O)CNC(=O)CCc1c(-c2ccc(F)cc2)[nH]c2c(F)cc(F)cc12` [Compound 173], the IC50 at APOL1 G1 Protein and at G1 APOL1 was over 1 µM throughout.
Turning to `C[C@@H](CO)NC(=O)CCc1c(-c2ccc(F)cc2)[nH]c2ccc(F)cc12` [Compound 31], the IC50 at APOL1 G1 Protein is 0.25 to 1 µM; at G1 APOL1, over 1 µM.
On to `O=C(CCc1c(-c2ccc(F)cc2)[nH]c2c(F)cc(F)cc12)Nc1ncco1` [Compound 162], for which the IC50 on APOL1 G1 Protein and at G1 APOL1 was over 1 µM throughout.
As to `C[C@@H](CO)N(C)C(=O)CCc1c(-c2ccc(F)cc2)[nH]c2c(F)cc(F)cc12` [Compound 149], the IC50 on APOL1 G1 Protein and on G1 APOL1 was over 1 µM each time.
As to `O=C(CCc1c(-c2ccc(F)cc2)[nH]c2ccc(F)cc12)N1CC(O)C1` [Compound 58], the IC50 on APOL1 G1 Protein and on G1 APOL1 was over 1 µM throughout.
On to `NC(=O)[C@@H](CO)NC(=O)CCc1c(-c2ccc(F)cc2)[nH]c2c(F)cc(F)cc12` [Compound 98], for which the IC50 is over 1 µM on APOL1 G1 Protein and 0.25 to 1 µM on G1 APOL1.
For `O=C(CCc1c(-c2ccc(F)cc2)[nH]c2ccc(F)cc12)NC(CO)CO` [Compound 22], the IC50 at APOL1 G1 Protein and on G1 APOL1 was 0.25 to 1 µM each time.
With `O=C(CCc1c(-c2ccc(F)cc2)[nH]c2c(F)cc(F)cc12)NCCC(=O)N1CC(O)C1` [Compound 191], the IC50 at APOL1 G1 Protein and at G1 APOL1 was over 1 µM in each case.
For `O=C(CCc1c(-c2ccc(F)cc2)[nH]c2ccccc12)NC1CC1` [Compound 238], the IC50 on APOL1 G1 Protein and at G1 APOL1 was over 1 µM each time.
Regarding `CN(CC(F)(F)F)C(=O)CCc1c(-c2ccc(F)cc2)[nH]c2c(F)cc(F)cc12` [Compound 166], the IC50 on APOL1 G1 Protein and on G1 APOL1 was over 1 µM throughout.
For the molecule `O=C(CCc1c(-c2ccc(F)cc2)[nH]c2c(F)cc(F)cc12)N[C@H]1COC[C@@H]1O` [Compound 181], the IC50 at APOL1 G1 Protein and on G1 APOL1 was over 1 µM in each case.
For `O=C(CCc1c(-c2ccc(F)cc2)[nH]c2c(F)cc(F)cc12)Nc1ccc[nH]c1=O` [Compound 175], the IC50 on APOL1 G1 Protein and on G1 APOL1 was over 1 µM in each case.
Consider `N[C@H]1C[C@@H](NC(=O)CCc2c(-c3ccc(F)cc3)[nH]c3ccc(F)cc23)C1` [Compound 10], for which the IC50 at APOL1 G1 Protein and on G1 APOL1 was over 1 µM in each case.
`O=C(CCc1c(-c2ccc(F)cc2)[nH]c2c(F)cc(F)cc12)Nc1cnoc1` [Compound 146]: the IC50 at APOL1 G1 Protein and at G1 APOL1 was over 1 µM in each case.
As to `O=C(CCc1c(-c2ccc(F)cc2)[nH]c2ccc(F)cc12)N[C@H]1C[C@@H](O)C1` [Compound 87], the IC50 on APOL1 G1 Protein and at G1 APOL1 was over 1 µM each time.
As for `O=C(CCc1c(-c2ccc(F)cc2)[nH]c2c(F)cc(F)cc12)N1CC(CO)C1` [Compound 104], the IC50 on APOL1 G1 Protein and at G1 APOL1 was over 1 µM in each case.
On to `O=C(CCc1c(-c2ccc(F)cc2)[nH]c2c(F)cc(F)cc12)NCc1ncco1` [Compound 153], for which the IC50 on APOL1 G1 Protein and at G1 APOL1 was over 1 µM throughout.
Take `CC1(NC(=O)OC(C)(C)C)CCN(C(=O)CCc2c(-c3ccc(F)cc3)[nH]c3ccc(F)cc23)C1` (stereo not shown) [Compound 27]: the IC50 on APOL1 G1 Protein and at G1 APOL1 was over 1 µM each time.
For `CC1(O)CCN(C(=O)CCc2c(-c3ccc(F)cc3)[nH]c3ccc(F)cc23)C1` (racemic) [Compound 88], the IC50 at APOL1 G1 Protein and at G1 APOL1 was over 1 µM each time.
Turning to `O=C(CCc1c(-c2ccc(F)cc2)[nH]c2c(F)cc(F)cc12)Nc1ccno1` [Compound 184], the IC50 on APOL1 G1 Protein and at G1 APOL1 was over 1 µM in each case.
Turning to `C[C@H](CO)NC(=O)CCc1c(-c2ccc(F)cc2)[nH]c2c(F)cc(Br)cc12` [Compound 227, 3-[5-bromo-7-fluoro-2-(4-fluorophenyl)-1H-indol-3-yl]-N-[(1R)-2-hydroxy-1-methyl-ethyl]propanamide], the IC50 at APOL1 G1 Protein and at G1 APOL1 was under 0.25 µM each time.
For `NC1CCN(C(=O)CCc2c(-c3ccc(F)cc3)[nH]c3ccc(F)cc23)C1` (stereo not shown) [Compound 49], the IC50 at APOL1 G1 Protein and on G1 APOL1 was over 1 µM in each case.
In the case of `O=C(CCc1c(-c2ccc(F)cc2)[nH]c2ccc(F)cc12)NC(CO)CF` (stereo not shown) [Compound 90], the IC50 is under 0.25 µM on APOL1 G1 Protein and 0.25 to 1 µM on G1 APOL1.
